Literature values, collected in PMC12308805, “Ultrahigh-Throughput Virtual Screening Strategies against PPI Targets: A Case Study of STAT Inhibitors” (Journal of Chemical Information and Modeling, 2025).
Read-outs that look alike come from different tables or passages of the source. Square brackets hold non-standard residues; d marks the D form. Peptide text beside a SMILES is read from it. * marks the point of attachment. pY = N[C@@H](Cc1ccc(OP(=O)(O)O)cc1)C(=O)O; Hyp = O=C(O)[C@@H]1C[C@@H](O)CN1; Isobutyryl = CC(C)C(=O)*

Test system: STAT3
Conditions: sheet 6QHD_actives_decoys, cited from earlier work; for Type: retrospective screening set for STAT3 SH2 domain (PDB 6QHD), ref DUD-E; for Type (known STAT3 active): known STAT3 actives of the retrospective screening set, ref ChEMBL / literature
[1] = decoys are presumed inactives, not tested
[2] = decoys generated with DUD-E and presumed inactive, not tested

Compound | Type [1] | Type [2] | also measured
CNC(=O)[C@H](CC(C)C)NC(=O)[C@H](Cc1c[nH]cn1)NC(=O)[C@@H](C)NC(=O)[C@@H](NC(=O)[C@H](C)NC(=O)[C@H](Cc1c[nH]c2ccccc12)NC(=O)[C@H](Cc1cnc[nH]1)NC(=O)C(C)C)C(C)C [Decoy805] (Isobutyryl-HWAV[dA]HL-NHMe) | Inactive (Decoy) |  | 
Cc1ccc(S(=O)(=O)NCC(=O)N/N=C/c2ccc(OC(=O)c3ccccc3)cc2OC(=O)c2ccccc2)cc1 [Decoy602] |  | Inactive (Decoy) | 
Cc1noc(C)c1CSc1ncccc1C(=O)O[C@H](C)C(=O)Nc1sccc1C(N)=O [Decoy904] | Inactive (Decoy) |  | 
COc1cc(/C=N/Nc2nnc(SCC(=O)Nc3ccc(C)cc3C)n2N)cc(OC)c1OC [Decoy379] |  | Inactive (Decoy) | 
COc1ccc(C(=O)O[C@H]2[C@@H]3C=CO[C@H](O[C@@H]4O[C@H](COC(C)=O)[C@@H](OC(C)=O)[C@H](OC(C)=O)[C@H]4OC(C)=O)[C@@H]3[C@](O)(COC(C)=O)[C@@H]2O)cc1 [Decoy373] |  | Inactive (Decoy) | 
COc1ccc2[nH]cc(CCN/C(=N\C(=O)CS[C@H]3N=N[C@@H](N)S3)Nc3nc(C)cc(C)n3)c2c1 [Decoy359] |  | Inactive (Decoy) | 
CC(C)C[C@H](NC(=O)/C=C/c1ccc(OP(=O)(O)O)cc1)C(=O)N1C[C@H]2C[C@H]2[C@H]1C(=O)N[C@@H](CCC(N)=O)C(=O)NCc1ccccc1 [CHEMBL575497] |  |  | Type (known STAT3 active): Active
COc1ccc(OC)c(-n2c(CNC(=O)c3ccc(S(=O)(=O)N(C)C)cc3)nnc2SCC(=O)Nc2ccc(F)cc2)c1 [Decoy528] |  | Inactive (Decoy) | 
CCCCCC[C@H]1C(=O)O[C@@H](C)[C@@H](NC(=O)c2cccc(NC=O)c2O)C(=O)O[C@@H](C)[C@H]1OC(=O)CCC [Decoy385] |  |  | Type ([…]): Inactive (Decoy)
C[C@@]12CCC[C@@](C)(C(=O)O[C@@H]3O[C@@H](CO)[C@@H](O)[C@@H](O)[C@H]3O)[C@H]1CC[C@]13C[C@H](CC[C@H]12)[C@@](CO)(O[C@@H]1O[C@@H](CO)[C@@H](O)[C@@H](O)[C@H]1O)C3 [Decoy524] |  | Inactive (Decoy) | 
OC[C@@H]1O[C@H](O[C@H]2O[C@H](CO)[C@H](O)[C@H](OCc3ccccc3)[C@@H]2OCc2ccccc2)[C@H](OCc2ccccc2)[C@H](OCc2ccccc2)[C@@H]1O [Decoy949] | Inactive (Decoy) |  | 
COc1ccc(OC[C@@H](O)Cn2c(C)c(C#N)c(=O)n(C[C@@H](O)COc3ccc(OC)cc3)c2=O)cc1 [Decoy738] | Inactive (Decoy) |  | 
COC(=O)[C@H](CCC(N)=O)NC(=O)[C@@H]1Cc2cccc3c2N1C(=O)[C@@H](NC(=O)/C=C/c1ccc(OP(=O)(O)O)cc1)CC3 [CHEMBL503365] |  |  | Type (known STAT3 active): Active
COc1cc(NS(=O)(=O)c2ccc(NC(=O)c3cccc(COc4cccc(Cl)c4)c3)cc2)nc(OC)n1 [Decoy485] |  | Inactive (Decoy) | 
Nc1n(-c2ccccc2)c(=O)c(C(c2ccc([N+](=O)[O-])cc2)c2c([O-])[n+](-c3ccccc3)c(N)n(-c3ccccc3)c2=O)c([O-])[n+]1-c1ccccc1 [Decoy514] |  |  | Type ([…]): Inactive (Decoy)
Cc1cc(C)cc(NC(=O)COc2ccc(S(=O)(=O)Nc3ccc(C(=O)O)cc3)cc2[N+](=O)[O-])c1 [Decoy932] | Inactive (Decoy) |  | 
Nc1nnc(S(=O)(=O)N[C@]2(C(F)(F)F)C(=O)N=C3C2=C(O)NC(=O)N3Cc2cccnc2)s1 [Decoy794] | Inactive (Decoy) |  | 
CC(=O)N[C@@H](Cc1ccc(OP(=O)(O)O)cc1)C(=O)N[C@@H](CC(C)C)C(=O)N1C[C@H](O)C[C@H]1C(=O)N[C@@H](CCC(N)=O)C(=O)N[C@H](C(N)=O)[C@@H](C)O [CHEMBL372429] (Ac-[pY]L[Hyp]QT-NH2) |  |  | Type (known STAT3 active): Active
CC(=O)O[C@H]1[C@@H](O)[C@H](CO)O[C@H](O[C@@H](C/N=C/c2c(O)ccc3ccccc23)[C@@H](CO)O[C@H](O)C/N=C/c2c(O)ccc3ccccc23)[C@@H]1O [Decoy442] |  | Inactive (Decoy) | 
CC(C)C[C@H](NC(=O)/C=C/c1ccc(OP(=O)(O)O)cc1)C(=O)N1C[C@H]2C[C@H]2[C@H]1C(=O)N[C@@H](CCC(N)=O)C(C)C [CHEMBL573930] |  |  | Type (known STAT3 active): Active
